Test results reported in patent US9932333B2, “Benzothiazole compound and medicine containing same” (JAPAN SCIENCE AND TECHNOLOGY AGENCY, priority 2014, dated 2018).

Experiments:
[1] = Fluorescence in glycerol/water mixed solvent; format: physicochemical; settings: increasing glycerol concentration
Aβ1-42 [2] = target: T1, Aβ1-42 (Homo sapiens, UniProt P05067); test: Oxygenation ratio of aggregated to non-aggregated Aβ1-42 (Example 8); format: biochemical; settings: 20.0 mmol %, pH 7.4, room temperature, light 10 minutes
T1 sequence (P05067 672-713 limits assumed): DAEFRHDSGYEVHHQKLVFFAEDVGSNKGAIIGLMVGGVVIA
Experimental: (§1) Then, the reaction was monitored with a mass spectrometer (MALDI-TOF MS).
Each oxygenation ratio was calculated according to (Intensity ratio of oxygenation of aggregated Aβ1-42)/(Intensity ratio of oxygenation of non-aggregated Aβ1-42) and (Intensity ratio of oxygenation of aggregated nucleoside phosphorylase)/(Intensity ratio of oxygenation of non-aggregated nucleoside phosphorylase).

[3] = Oxidation reaction of benzoyl methionine in glycerol/water; settings: aqueous solution containing glycerol, light irradiation
Source text: (§2) Then, the reaction was monitored with LC/MS (ESI-Q).

aggregated Aβ1-42 = aggregated Aβ1-42 (Homo sapiens, UniProt P05067); test: Binding to aggregated Aβ1-42 by fluorescence assay (Example 5); settings: 10 μM; Aβ1-42 incubated 0, 1, 3, 6 hours
Chain of aggregated Aβ1-42 (P05067 672-713 limits assumed): as above
Experimental: (2) Compound (1a) (10 μM) was added to each of solutions containing 4 types of aggregated Aβ1-42 (0.5 μM) prepared by the incubation of Aβ1-42 (20 μM) in a phosphate buffer solution (10 mM, pH 7.4) at 37° C. for 0, 1, 3, and 6 hours, respectively, followed by the measurement of the fluorescence intensity of compound (1a).

Aβ1-42 oligomers [4] = target: T2, Aβ1-42 oligomers (Homo sapiens, UniProt P05067); test: Aggregability of oxygenized Aβ1-42 oligomer (Nile Red, atomic force microscopy); format: biochemical; settings: compared with native
T2 sequence (P05067 672-713 limits assumed): as above
Experimental: (4) Compound (1a) (4 μM) was added to each of solutions containing two types of Aβ1-42 oligomers (0.5 μM) prepared by the incubation of Aβ1-42 (20 μM) in a phosphate buffer solution (10 mM, pH 7.4) at 0° C. and room temperature, respectively, for 24 hours, and the mixture was incubated at room temperature for 1 hour under irradiation with LED (wavelength: 500 nm). Then, each solution was incubated at 37° C., and Nile Red was added thereto, followed by the measurement of its fluorescence intensity. The sample incubated for 6 hours was also analyzed for its shape by atomic force microscopy. A non-oxygenized Aβ1-42 oligomer (native) was prepared without light irradiation.

α-synuclein = α-synuclein (Homo sapiens, UniProt P37840); test: Oxygenation reaction of α-synuclein; format: biochemical
Source text: (§3) The reaction was monitored with a mass spectrometer (MALDI-TOF MS).

Aβ1-42 oligomers [5] = target: T2, Aβ1-42 oligomers; test: Oxygenation of Aβ1-42 oligomer (Example 6); format: biochemical; settings: 4 μM; light 10 minutes, room temperature
Experimental: (3) Compound (1a) (4 μM) was added to each of solutions containing two types of Aβ1-42 oligomers (0.5 μM) prepared by the incubation of Aβ1-42 (20 μM) in a phosphate buffer solution (10 mM, pH 7.4) at 0° C. and room temperature, respectively, for 24 hours, and the mixture was incubated at room temperature for 10 minutes under irradiation with LED (wavelength: 500 nm). Then, the reaction was monitored with a mass spectrometer (MALDI-TOF MS). The intensity ratio of oxygenation (%) was calculated according to (Total intensity of oxygen adducts)/((Intensity of non-oxygen adduct (native))+(Total intensity of oxygen adducts)).

angiotensin IV [6] = target: T3, angiotensin IV (Homo sapiens, UniProt P01019); test: Oxidation reaction of angiotensin IV (Example 3); format: biochemical; settings: light irradiation 1.5 hours, neutral buffer, 37° C.
Source text: (§4) Then, the reaction was monitored with a mass spectrometer (MALDI-TOF MS) or LC/MS (ESI-Q).

angiotensin IV [7] = target: T3, angiotensin IV; test: Selectivity of oxygenation reaction, angiotensin IV (Example 4); format: biochemical; parameters: unit not given here; settings: compound (1a) 20 mmol %, light 1 hour, 37° C.
Source text: as §4

somatostatin = somatostatin (Homo sapiens, UniProt P61278); test: Selectivity of oxygenation reaction, somatostatin (Example 4); format: biochemical; parameters: unit not given here; settings: compound (1a) 20 mmol %, light 1 hour, 37° C.
Source text: as §4

Absorption spectra = format: physicochemical
[8] = Singlet oxygen production in glycerol/water (furfuryl alcohol decrease); settings: aqueous solution containing glycerol, light irradiation
Source text: as §2

Aβ1-42 oligomers [9] = target: T2, Aβ1-42 oligomers; test: Binding to Aβ1-42 oligomer by fluorescence assay (Example 6); settings: 10 μM; oligomers prepared at 0° C. and room temperature, 24 hours
Experimental: (2) Compound (1a) (10 μM) was added to each of solutions containing two types of Aβ1-42 oligomers (0.5 μM) prepared by the incubation of Aβ1-42 (20 μM) in a phosphate buffer solution (10 mM, pH 7.4) at 0° C. and room temperature, respectively, for 24 hours, followed by the measurement of the fluorescence intensity of compound (1a).

methionine enkephalin [10] = target: T4, methionine enkephalin (Homo sapiens, UniProt P01210); test: Selectivity of oxygenation reaction, methionine enkephalin (Example 4); format: biochemical; parameters: unit not given here; settings: compound (1a) 20 mmol %, light 1 hour, 37° C.
Source text: as §4

Aβ1-42 [11] = target: T1, Aβ1-42; test: Oxidation reaction of Aβ1-42 under LED irradiation (Example 3); format: biochemical
Experimental: as §4
The amino acid analysis of oxidized Aβ1-42 and oxidized amylin (carried out by Peptide Institute, Inc.) was conducted. The oxidized Aβ1-42 and the oxidized amylin were enzymatically digested with endopeptidase Lys-C and chymotrypsin, respectively, and the obtained digests were analyzed with a mass spectrometer (MALD-TOF MS) and LC/MS/MS (ESI-Q-TOF).

β2-microglobulin = β2-microglobulin (Homo sapiens, UniProt P61769); test: Oxygenation reaction of β2-microglobulin; format: biochemical
Chain of β2-microglobulin (P61769 21-119, species assumed): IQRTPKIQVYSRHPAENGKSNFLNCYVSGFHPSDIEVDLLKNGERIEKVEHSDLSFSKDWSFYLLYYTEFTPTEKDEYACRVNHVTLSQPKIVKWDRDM
Source text: as §3

desacyl ghrelin = target: T5, desacyl ghrelin (Homo sapiens, UniProt Q9UBU3); test: Selectivity of oxygenation reaction, desacyl ghrelin (Example 4); format: biochemical; parameters: unit not given here; settings: compound (1a) 20 mmol %, light 1 hour, 37° C.
T5 sequence (Q9UBU3 24-51 limits assumed): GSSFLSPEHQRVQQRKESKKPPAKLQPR
Source text: as §4

insulin = target: T6, insulin (Homo sapiens, UniProt P01308); test: Oxygenation reaction of insulin; format: biochemical
T6 construct: prepared by the incubation of insulin (400 μM) in a 25 mM hydrochloric acid solution
T6 sequence (P01308 25-54 limits assumed, species assumed): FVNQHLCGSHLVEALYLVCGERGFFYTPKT
T6 sequence (P01308 90-110 limits assumed, species assumed): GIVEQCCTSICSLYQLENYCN
Source text: as §1

transthyretin = transthyretin (Homo sapiens, UniProt P02766); test: Oxygenation reaction of transthyretin; format: biochemical
Source text: as §3

methionine enkephalin [12] = target: T4, methionine enkephalin; test: Oxidation reaction of methionine enkephalin (Example 3); format: biochemical; settings: light irradiation 1.5 hours, neutral buffer, 37° C.
Source text: as §4

[13] = 20 μM, light 500 nm, 37° C., 30 minutes

C[n+]1c(-c2cc3c4c(c2)CCCN4CCC3)sc2cc(Br)ccc21 [1a]
fluorescence intensity in glycerol/water mixed solvent [1]: increased with increase in the concentration of highly viscous glycerol
oxygenation ratio (aggregated Aβ1-42 / non-aggregated Aβ1-42) (Aβ1-42 [2]): approximately 4.2
oxidation of benzoyl methionine [3]: oxidized in a glycerol concentration-dependent manner
binding to aggregated Aβ1-42 (fluorescence intensity) (aggregated Aβ1-42): bind to the cross-β-sheet structure of aggregated Aβ1-42
increase in cross-β structure of Aβ1-42 oligomer (Nile Red fluorescence) (Aβ1-42 oligomers [4]; 4 μM, light 1 hour, then 37° C.): suppress increase in the cross-β structure of the Aβ1-42 oligomer
fibril formation of Aβ1-42 oligomer (atomic force microscopy) (Aβ1-42 oligomers [4]; incubated for 6 hours): similarly suppressed
oxygenation of aggregated α-synuclein (α-synuclein; [13]): observed
progression of oxygenation of non-aggregated α-synuclein (α-synuclein; [13]): not observed
oxygenation of aggregated α-synuclein without light irradiation (α-synuclein; without light irradiation): not observed
oxygenation of Aβ1-42 oligomers (Aβ1-42 oligomers [5]): able to catalyze the oxygenation of both of the Aβ1-42 oligomers
oxygenation of angiotensin IV (angiotensin IV [6]): ≤ 5%
generation of an oxygenated form of angiotensin IV (angiotensin IV [7]): ≤ 2
generation of an oxygenated form of somatostatin (somatostatin): ≤ 2
maximum absorption wavelength (Absorption spectra; 20 μM, phosphate buffer pH 7.4): 456 nm
shift of maximum absorption wavelength to longer wavelength than thioflavin T (Absorption spectra; compared with thioflavin T): approximately 50 nm
production of singlet oxygen (decrease in furfuryl alcohol) [8]: production of singlet oxygen, with increase in the concentration of glycerol was observed
binding to Aβ1-42 oligomer (fluorescence) (Aβ1-42 oligomers [9]): binds to the Aβ1-42 oligomer
generation of an oxygenated form of methionine enkephalin (methionine enkephalin [10]): ≤ 2
oxidation efficiency of Aβ (Aβ1-42 [11]; 100 mmol %, light 500 nm, pH 7.4, 37° C., compared with thioflavin T): remarkably high as compared with thioflavin T
oxygenation site in Aβ1-42 (Aβ1-42 [11]; amino acid analysis and LC/MS/MS analysis): remarkably at His-13 and His-14 residues, and oxygenation also proceeds slightly at Met-35 residue
oxygenation of aggregated β2-microglobulin (β2-microglobulin; [13]): observed
progression of oxygenation of non-aggregated β2-microglobulin (β2-microglobulin; [13]): not observed
oxygenation of aggregated β2-microglobulin without light irradiation (β2-microglobulin; without light irradiation): not observed
generation of an oxygenated form of desacyl ghrelin (desacyl ghrelin): ≤ 2
progression of oxygenation of aggregated insulin (insulin; [13]): observed
progression of oxygenation of non-aggregated insulin (insulin; [13]): not observed
oxygenation of aggregated insulin without light irradiation (insulin; without light irradiation): not observed
oxygenation of aggregated transthyretin (transthyretin; [13]): observed
progression of oxygenation of non-aggregated transthyretin (transthyretin; [13]): not observed
oxygenation of aggregated transthyretin without light irradiation (transthyretin; without light irradiation): not observed
oxygenation of methionine enkephalin (methionine enkephalin [12]): ≤ 5%
